The test system of one experiment is VEGF. The experiment in a line: Evaluation of VEGF protein secretion level (Human VEGF ELISA) in ARPE-19 cell medium under hypoxic conditions. It counts as cell-based. The settings on record: ARPE-19 cells; pretreated 2 hours, 24 hours hypoxic conditions; secreted VEGF in medium supernatant by ELISA; concentration range reducing VEGF by 50% vs untreated control; read-out: IC50 VEGF. A digest of the protocol: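 Human ARPE-19 cells were pretreated 2 h with compound (0.1 nM–10 µM, in DMEM/F12 with 1% FBS), then held 24 h in hypoxia (1% O2, 5% CO2). Secreted VEGF in the supernatant was quantified by ELISA (A450). The value is the concentration range giving ≥50% VEGF reduction versus untreated control.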
A general note: In an ELISA, binding on a coated surface is turned into a signal by an enzyme label.

Another experiment concerns the target T1, HIF-1α (Homo sapiens, UniProt Q16665).
T1 construct: endogenous in cells; host or cells: ARPE-19 (ATCC CRL-2302)
The experiment is described as follows: Analysis of HIF-1α protein expression (Western blot) in ARPE-19 cells under mixed hypoxic condition. It counts as cell-based. To be noted: values marked * in the table, mixed hypoxic condition (1% oxygen + CoCl2) for 24 hours, concentration range at which HIF-1α expression is reduced by 50% vs untreated control, read-out: IC50 HIF-1α, Hypoxia(24h). The method in brief:
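ARPE-19 cells were pretreated 16 h or 2 h with compound (0.1 nM–10 µM, serum-free DMEM/F12), then held 1 h or 24 h in mixed hypoxia (1% O2 plus CoCl2). HIF-1α was quantified by Western blot against β-actin; the concentration range giving ≥50% reduction vs untreated control was reported.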

Molecules are shown by their SMILES.

T1 sequence (Q16665 whole entry): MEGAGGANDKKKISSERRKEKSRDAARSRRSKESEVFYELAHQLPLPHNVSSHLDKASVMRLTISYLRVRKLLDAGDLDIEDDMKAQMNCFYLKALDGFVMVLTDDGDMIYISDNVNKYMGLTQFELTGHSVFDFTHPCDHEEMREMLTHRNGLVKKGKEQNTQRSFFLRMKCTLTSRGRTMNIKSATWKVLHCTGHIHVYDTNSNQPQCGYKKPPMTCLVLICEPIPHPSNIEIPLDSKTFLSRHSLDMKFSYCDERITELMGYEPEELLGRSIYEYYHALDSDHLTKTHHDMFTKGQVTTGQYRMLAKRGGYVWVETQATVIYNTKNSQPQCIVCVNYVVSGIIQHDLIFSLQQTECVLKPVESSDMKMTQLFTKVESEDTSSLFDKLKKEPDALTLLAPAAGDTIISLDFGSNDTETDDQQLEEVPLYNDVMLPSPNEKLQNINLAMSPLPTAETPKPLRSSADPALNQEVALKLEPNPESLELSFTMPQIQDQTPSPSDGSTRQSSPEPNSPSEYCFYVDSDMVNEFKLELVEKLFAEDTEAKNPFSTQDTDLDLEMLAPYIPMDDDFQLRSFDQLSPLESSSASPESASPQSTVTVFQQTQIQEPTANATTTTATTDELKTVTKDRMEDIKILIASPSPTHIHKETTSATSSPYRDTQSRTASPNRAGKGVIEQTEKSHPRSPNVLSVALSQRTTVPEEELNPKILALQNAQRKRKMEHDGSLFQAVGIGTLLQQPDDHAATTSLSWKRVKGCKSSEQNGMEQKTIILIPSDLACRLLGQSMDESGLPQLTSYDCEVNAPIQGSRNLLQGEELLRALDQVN

Usually IC50 stands for the midpoint of a concentration-inhibition curve. For `O=C(NCc1cc(F)cc(-c2cnn(-c3ccc(F)cc3)c2)c1)c1ncnc2nc(C3CC(C(=O)O)C3)[nH]c12` (stereo not drawn) [Example 106, 3-(6-((3-Fluoro-5-(1-(4-fluorophenyl)-1H-pyrazol-4-yl)benzyl)carbamoyl)-7H-purin-8-yl)cyclobutanecarboxylic acid], the concentration for half-maximal inhibition (IC50) in the experiment on VEGF was above 10000 nM. Moreover, the DC50 at HIF-1α was above 10000 nM.

Take `O=C(NCc1cc(F)cc(-c2cnn(-c3ccc(F)cc3)c2)c1)c1ccnc2nc(C3CCCC3)[nH]c12` [Example 107, 2-Cyclopentyl-N-(3-fluoro-5-(1-(4-fluorophenyl)-1H-pyrazol-4-yl)benzyl)-1H-imidazo [4,5-b] pyridine-7-carboxamide]: the IC50 in the experiment with VEGF is above 10000 nM. At HIF-1α, the DC50 is above 10000 nM.

In the case of `O=C(NCc1ccc(-c2cnn(-c3ccc(F)cc3)c2)cc1)c1ncnc2nc(C3CCCC3)[nH]c12` [Example 108, 8-Cyclopentyl-N-(4-(1-(4-fluorophenyl)-1H-pyrazol-4-yl)benzyl)-7H-purine-6-carboxamide], the IC50 in the experiment on VEGF is above 10000 nM. Further, the DC50 on HIF-1α was above 10000 nM.

As for `O=C(NCc1ccc(-c2cnn(-c3ccc(F)cc3)c2)c(F)c1)c1ncnc2nc(C3CCCC3)[nH]c12` [Example 109, 8-Cyclopentyl-N-(3-fluoro-4-(1-(4-fluorophenyl)-1H-pyrazol-4-yl)benzyl)-7H-purine-6-carboxamide], the IC50 in the experiment on VEGF was above 10000 nM. The DC50 at HIF-1α was above 10000 nM.

`O=C(NCc1cc(F)cc(-c2cnn(-c3ccc(F)cc3)c2)c1)c1ncnc2nc(C3CC4(CC4)C3)[nH]c12` [Example 111, N-(3-fluoro-5-(1-(4-fluorophenyl)-1H-pyrazol-4-yl)benzyl)-8-(spiro[2.3]hexan-5-yl)-7H-purine-6-carboxamide]: the half-inhibitory concentration (IC50) in the experiment with VEGF lay in the range of 100 to 1000 nM. Also, the DC50 at HIF-1α is below 100 nM.

With `CN(Cc1cc(F)cc(-c2cnn(-c3ccc(F)cc3)c2)c1)C(=O)c1ncnc2nc(C3CCCC3)[nH]c12` [Example 112, 8-Cyclopentyl-N-(3-fluoro-5-(1-(4-fluorophenyl)-1H-pyrazol-4-yl)benzyl)-N-methyl-7H-purine-6-carboxamide], in the experiment with VEGF, the IC50 is above 10000 nM. Besides, the DC50 on HIF-1α was above 10000 nM.

As for `O=C(NCc1cc(F)cc(-c2cnn(-c3ccc(F)cc3)c2)c1)c1ncnc2nc(C3CC4CC4C3)[nH]c12` (stereo not drawn) [Example 113, 8-(Bicyclo[3.1.0]hexan-3-yl)-N-(3-fluoro-5-(1-(4-fluorophenyl)-1H-pyrazol-4-yl)benzyl)-7H-purine-6-carboxamide], in the experiment with VEGF, the IC50 lay in the range of 100 to 1000 nM. Moreover, on HIF-1α, the DC50 was below 100 nM.

Turning to `O=C(NCc1cc(F)cc(-c2cnn(-c3ccc(F)cc3)c2)c1)c1ncnc2nc(C3CC4CCC3C4)[nH]c12` (stereo not drawn) [Example 114, 8-(Bicyclo[2.2.1]heptan-2-yl)-N-(3-fluoro-5-(1-(4-fluorophenyl)-1H-pyrazol-4-yl)benzyl)-7H-purine-6-carboxamide], in the experiment on VEGF, the IC50 fell in the range of 100 to 1000 nM. In addition, on HIF-1α, the DC50 lay within 100 to 1000 nM.

Consider `O=C(NCc1cc(F)cc(-c2cnn(-c3ccc(F)cc3)c2)c1)c1ncnc2nc(C34CCC(C3)C4)[nH]c12` [Example 115, 8-(Bicyclo[2.1.1]hexan-1-yl)-N-(3-fluoro-5-(1-(4-fluorophenyl)-1H-pyrazol-4-yl)benzyl)-7H-purine-6-carboxamide], for which the 50% inhibitory concentration (IC50) in the experiment with VEGF lay within 100 to 1000 nM. Also, at HIF-1α, the DC50 was 100 to 1000 nM.

Turning to `O=C(NCc1cc(F)cc(-n2cc(-c3ccc(F)cc3)nn2)c1)c1ncnc2nc(C3CCCC3)[nH]c12` [Example 116, 8-Cyclopentyl-N-(3-fluoro-5-(4-(4-fluorophenyl)-1H-1,2,3-triazol-1-yl)benzyl)-7H-purine-6-carboxamide], the IC50 in the experiment on VEGF is above 10000 nM. In addition, the DC50 at HIF-1α fell in the range of 100 to 1000 nM.

For `O=C(NCc1cc(F)cc(-c2cnn(-c3ccsc3)c2)c1)c1ncnc2nc(C3CCCC3)[nH]c12` [Example 117, 8-Cyclopentyl-N-(3-fluoro-5-(1-(thiophen-3-yl)-1H-pyrazol-4-yl)benzyl)-7H-purine-6-carboxamide], the IC50 in the experiment with VEGF was 100 to 1000 nM. Moreover, on HIF-1α, the DC50 was below 100 nM.

On to `Cn1ccc(Nc2cc(F)cc(CNC(=O)c3ncnc4nc(C5CCCC5)[nH]c34)c2)n1` [Example 118, 8-Cyclopentyl-N-(3-fluoro-5-((1-methyl-1H-pyrazol-3-yl)amino)benzyl)-7H-purine-6-carboxamide], for which the IC50 in the experiment on VEGF fell in the range of 100 to 1000 nM. Also, the DC50 on HIF-1α was below 100 nM.

Consider `O=C(NCc1cc(F)cc(-c2cn(-c3ccc(F)cc3)nn2)c1)c1ncnc2nc(C3CCCC3)[nH]c12` [Example 119, 8-Cyclopentyl-N-(3-fluoro-5-(1-(4-fluorophenyl)-1H-1,2,3-triazol-4-yl)benzyl)-7H-purine-6-carboxamide], for which the IC50 with VEGF is above 10000 nM. Besides, the DC50 at HIF-1α fell in the range of 100 to 1000 nM.

Take `O=C(NCc1cc(F)cc(Nc2cc[nH]n2)c1)c1ncnc2nc(C3CCCC3)[nH]c12` [Example 120, N-(3-((1H-pyrazol-3-yl)amino)-5-fluorobenzyl)-8-cyclopentyl-7H-purine-6-carboxamide]: the half-inhibitory concentration (IC50) with VEGF was above 10000 nM. At HIF-1α, the DC50 fell in the range of 100 to 1000 nM.

With `O=C(NCc1cc(F)cc(Nc2ccon2)c1)c1ncnc2nc(C3CCCC3)[nH]c12` [Example 121, 8-Cyclopentyl-N-(3-fluoro-5-(isoxazol-3-ylamino)benzyl)-7H-purine-6-carboxamide], the concentration for half-maximal inhibition (IC50) with VEGF is above 10000 nM. In addition, the DC50 on HIF-1α was in the range of 100 to 1000 nM.

Regarding `N#Cc1ccc(Nc2cc(F)cc(CNC(=O)c3ncnc4nc(C5CCCC5)[nH]c34)c2)cc1` [Example 122, N-(3-((4-cyanophenyl)amino)-5-fluorobenzyl)-8-cyclopentyl-7H-purine-6-carboxamide], the IC50 in the experiment with VEGF is below 100 nM. Moreover, the DC50 on HIF-1α is below 100 nM.

Consider `CC(=O)c1ccc(-n2cc(-c3cc(F)cc(CNC(=O)c4ncnc5nc(C6CCCC6)[nH]c45)c3)cn2)cc1` [Example 123, N-(3-(1-(4-acetylphenyl)-1H-pyrazol-4-yl)-5-fluorobenzyl)-8-cyclopentyl-7H-purine-6-carboxamide], for which the IC50 in the experiment on VEGF is below 100 nM. Moreover, the DC50 on HIF-1α is below 100 nM.

In the case of `O=C(NCc1cc(F)cc(-c2cnn(-c3ccoc3)c2)c1)c1ncnc2nc(C3CCCC3)[nH]c12` [Example 124, 8-Cyclopentyl-N-(3-fluoro-5-(1-(furan-3-yl)-1H-pyrazol-4-yl)benzyl)-7H-purine-6-carboxamide], the half-inhibitory concentration (IC50) in the experiment on VEGF lay within 100 to 1000 nM. Also, the DC50 on HIF-1α was below 100 nM.

Turning to `O=C(NCc1cc(F)cc(-c2cnn(-c3cnn(Cc4ccccc4)c3)c2)c1)c1ncnc2nc(C3CCCC3)[nH]c12` [Example 125, N-(3-(1'-benzyl-1'H-[1,4'-bipyrazol]-4-yl)-5-fluorobenzyl)-8-cyclopentyl-7H-purine-6-carboxamide], in the experiment with VEGF, the IC50 fell in the range of 100 to 1000 nM. Moreover, the DC50 on HIF-1α is below 100 nM.

In the case of `NC(=O)c1ccc(Nc2cc(F)cc(CNC(=O)c3ncnc4nc(C5CCCC5)[nH]c34)c2)cc1` [Example 126, N-(3-((4-carbamoylphenyl)amino)-5-fluorobenzyl)-8-cyclopentyl-7H-purine-6-carboxamide], the half-maximal inhibitory concentration (IC50) in the experiment on VEGF was below 100 nM. The DC50 at HIF-1α was below 100 nM.

Consider `CCOC(=O)c1ccc(Nc2cc(F)cc(CNC(=O)c3ncnc4nc(C5CCCC5)[nH]c34)c2)cc1` [Example 127, Ethyl 4-((3-((8-cyclopentyl-7H-purine-6-carboxamido)methyl)-5-fluorophenyl)amino)benzoate], for which, in the experiment on VEGF, the IC50 was above 10000 nM. Moreover, the DC50 on HIF-1α is 100 to 1000 nM.

As to `Cn1cc(-n2cc(-c3cc(F)cc(CNC(=O)c4ncnc5nc(C6CCCC6)[nH]c45)c3)cn2)cn1` [Example 128, 8-Cyclopentyl-N-(3-fluoro-5-(1'-methyl-1'H-[1,4'-bipyrazol]-4-yl)benzyl)-7H-purine-6-carboxamide], in the experiment on VEGF, the IC50 is below 100 nM. Moreover, the DC50 at HIF-1α was below 100 nM.

Take `CN1CCC(Nc2cc(F)cc(CNC(=O)c3ncnc4nc(C5CCCC5)[nH]c34)c2)CC1` [Example 129, 8-Cyclopentyl-N-(3-fluoro-5-((1-methylpiperidin-4-yl)amino)benzyl)-7H-purine-6-carboxamide]: the half-inhibitory concentration (IC50) in the experiment on VEGF is above 10000 nM. Also, on HIF-1α, the DC50 lay within 1000 to 10000 nM.

With `O=C(NCc1cc(F)cc(Nc2ccsc2)c1)c1ncnc2nc(C3CCCC3)[nH]c12` [Example 130, 8-Cyclopentyl-N-(3-fluoro-5-(thiophen-3-ylamino)benzyl)-7H-purine-6-carboxamide], the IC50 in the experiment on VEGF was in the range of 100 to 1000 nM. Moreover, the DC50 on HIF-1α is below 100 nM.

Regarding `O=C(NCc1cc(F)cc(N2CCN(c3ccc(F)cc3)CC2)c1)c1ncnc2nc(C3CCCC3)[nH]c12` [Example 131, 8-Cyclopentyl-N-(3-fluoro-5-(4-(4-fluorophenyl)piperazin-1-yl)benzyl)-7H-purine-6-carboxamide], the IC50 in the experiment on VEGF was above 10000 nM. Besides, the DC50 on HIF-1α is 1000 to 10000 nM.

In the case of `O=C(NCc1cc(F)cc(-c2nnc(-c3ccc(F)cc3)o2)c1)c1ncnc2nc(C3CCCC3)[nH]c12` [Example 132, 8-Cyclopentyl-N-(3-fluoro-5-(5-(4-fluorophenyl)-1,3,4-oxadiazol-2-yl)benzyl)-7H-purine-6-carboxamide], the 50% inhibitory concentration (IC50) in the experiment with VEGF was above 10000 nM. For the same molecule, on HIF-1α, the DC50 lay within 1000 to 10000 nM.

For `O=C(O)c1ccc(Nc2cc(F)cc(CNC(=O)c3ncnc4nc(C5CCCC5)[nH]c34)c2)cc1` [Example 133, 4-((3-((8-Cyclopentyl-7H-purine-6-carboxamido)methyl)-5-fluorophenyl)amino)benzoic acid], in the experiment with VEGF, the IC50 was above 10000 nM. Moreover, the DC50 at HIF-1α was in the range of 100 to 1000 nM.

These data come from patent publication EP4567035A1, “NOVEL COMPOUND AS HYPOXIA-INDUCIBLE FACTOR 1(HIF-1) INHIBITOR OR VASCULAR ENDOTHELIAL GROWTH FACTOR (VEGF) INHIBITOR, AND PHARMACEUTICAL COMPOSITION COMPRISING SAME” (Nextgen Bioscience Co., Ltd., priority 2022, dated 2024).
